# Patent US6525001B1, “Substituted pyrimidine and pyridine herbicides” (Mid-American Commercialization Corporation, priority 1997, dated 2003)
# Legend:
# Assay type in all cases: in vivo
# [1] = system: ivyleaf morningglory (Ipomoea hederacea); experiment: Test C; set-up: key: 0 was no effect; 100 was complete control; details: PREEMERGENCE
# [2] = system: purple nutsedge (Cyperus rotundus); experiment: Test E pre-/postemergence/post directed; set-up: key: 0 is no injury; 100 is complete control; details: PREEMERGENCE
# Summary of the method: (§1)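 Greenhouse pots; compound in non-phytotoxic solvent with surfactant, sprayed preemergence within one day of planting, postemergence at two to four leaf stage (three to twenty cm), or post directed to plant base and soil. Visual injury rated 13 to 21 days after application, 0 (none) to 100 (complete control).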
# [3] = system: sandbur (Cenchrus echinatus); experiment: Test E pre-/postemergence/post directed; set-up: key: 0 is no injury; 100 is complete control; details: PREEMERGENCE, Rate 32 g/ha
# Summary of the method: as §1
# [4] = system: arrowleaf sida (Sida rhombifolia); experiment: Test C; set-up: key: 0 was no effect; 100 was complete control; details: PREEMERGENCE
# [5] = system: lambsquarters (Chenopodium album); experiment: Test C; set-up: key: 0 was no effect; 100 was complete control; details: PREEMERGENCE
# [6] = system: velvetleaf (Abutilon theophrasti); experiment: Test C; details: PREEMERGENCE
# [7] = system: ladysthumb smartweed (Polygonum persicaria); experiment: Test C; details: PREEMERGENCE
# [8] = system: common groundsel (Senecio vulgaris); experiment: Test E pre-/postemergence/post directed; details: PREEMERGENCE, Rate 32 g/ha
# Summary of the method: as §1
# [9] = system: bermudagrass (Cynodon dactylon); experiment: Test E pre-/postemergence/post directed; details: PREEMERGENCE
# Summary of the method: as §1
# [10] = system: large crabgrass (Digitaria sanguinalis); experiment: Test E pre-/postemergence/post directed; details: PREEMERGENCE
# Summary of the method: as §1
# [11] = system: surinam grass (Brachiaria decumbens); experiment: Test E pre-/postemergence/post directed; details: PREEMERGENCE
# Summary of the method: as §1
# [12] = system: common ragweed (Ambrosia elatior); experiment: Test E pre-/postemergence/post directed; details: PREEMERGENCE
# Summary of the method: as §1
# [13] = system: johnson grass (Sorghum halepense); experiment: Test E pre-/postemergence/post directed; details: PREEMERGENCE
# Summary of the method: as §1
# [14] = system: Spanishneedles (Bidens bipinnata); experiment: Test E pre-/postemergence/post directed; details: PREEMERGENCE
# Summary of the method: as §1
# [15] = system: itchgrass (Rottboellia exaltata); experiment: Test E pre-/postemergence/post directed; details: PREEMERGENCE
# Summary of the method: as §1
# [16] = system: sandbur (Cenchrus echinatus); experiment: Test E pre-/postemergence/post directed; details: PREEMERGENCE
# Summary of the method: as §1
# [17] = system: alexandergrass (Brachiaria plantaginea); experiment: Test E pre-/postemergence/post directed; details: PREEMERGENCE
# Summary of the method: as §1
# [18] = system: pitted morningglory (Ipomoea lacunosa); experiment: Test E pre-/postemergence/post directed; details: PREEMERGENCE
# Summary of the method: as §1
# [19] = system: large crabgrass (Digitaria sanguinalis); experiment: Test C; set-up: key: 0 was no effect; 100 was complete control; details: PREEMERGENCE
# [20] = system: eastern black nightshade (Solanum ptycanthum); experiment: Test C; details: PREEMERGENCE
# [21] = system: wild poinsettia (Euphorbia heterophylla); experiment: Test C; details: PREEMERGENCE
smiles,measurement,setting,value
Cc1cnc(-n2ccc(C(F)(F)F)n2)nc1Cc1cccc(OC(F)(F)F)c1 [Compound 42],"Plant response rating, I. morningglory",[1]; Rate 35 g/ha,30
same,"Plant response rating, I. morningglory",[1]; Rate 70 g/ha,70
same,"Plant response rating, I. morningglory",[1]; Rate 140 g/ha,100
same,"Plant response rating, Purple nutsedge",[2]; Rate 32 g/ha,20
same,"Plant response rating, Purple nutsedge",[2]; Rate 64 g/ha,30
same,"Plant response rating, Purple nutsedge",[2]; Rate 125 g/ha,30
same,"Plant response rating, Purple nutsedge",[2]; Rate 250 g/ha,30
same,"Plant response rating, Sandbur",[3],0
same,"Plant response rating, Arrowleaf sida",[4]; Rate 35 g/ha,95
same,"Plant response rating, Arrowleaf sida",[4]; Rate 70 g/ha,95
same,"Plant response rating, Arrowleaf sida",[4]; Rate 140 g/ha,100
same,"Plant response rating, Lambsquarters",[5]; Rate 35 g/ha,85
same,"Plant response rating, Lambsquarters",[5]; Rate 70 g/ha,100
same,"Plant response rating, Lambsquarters",[5]; Rate 140 g/ha,100
same,"Plant response rating, Velvetleaf",[6]; Rate 35 g/ha,40
same,"Plant response rating, Velvetleaf",[6]; Rate 70 g/ha,80
same,"Plant response rating, Velvetleaf",[6]; Rate 140 g/ha,95
same,"Plant response rating, Ladysthumb",[7]; Rate 35 g/ha,90
same,"Plant response rating, Ladysthumb",[7]; Rate 70 g/ha,85
same,"Plant response rating, Ladysthumb",[7]; Rate 140 g/ha,95
same,"Plant response rating, Com. groundsel",[8],90
same,"Plant response rating, Bermudagrass",[9]; Rate 32 g/ha,90
same,"Plant response rating, Bermudagrass",[9]; Rate 64 g/ha,95
same,"Plant response rating, Bermudagrass",[9]; Rate 125 g/ha,98
same,"Plant response rating, Bermudagrass",[9]; Rate 250 g/ha,98
same,"Plant response rating, Large crabgrass",[10]; Rate 32 g/ha,50
same,"Plant response rating, Large crabgrass",[10]; Rate 64 g/ha,90
same,"Plant response rating, Surinam grass",[11]; Rate 32 g/ha,40
same,"Plant response rating, Surinam grass",[11]; Rate 64 g/ha,50
same,"Plant response rating, Com. ragweed",[12]; Rate 32 g/ha,50
same,"Plant response rating, Com. ragweed",[12]; Rate 64 g/ha,75
same,"Plant response rating, Com. ragweed",[12]; Rate 125 g/ha,90
same,"Plant response rating, Com. ragweed",[12]; Rate 250 g/ha,90
same,"Plant response rating, Johnsongrass",[13]; Rate 32 g/ha,10
same,"Plant response rating, Johnsongrass",[13]; Rate 64 g/ha,90
same,"Plant response rating, Johnsongrass",[13]; Rate 125 g/ha,90
same,"Plant response rating, Johnsongrass",[13]; Rate 250 g/ha,95
same,"Plant response rating, Spanishneedles",[14]; Rate 32 g/ha,20
same,"Plant response rating, Spanishneedles",[14]; Rate 64 g/ha,20
same,"Plant response rating, Spanishneedles",[14]; Rate 250 g/ha,90
same,"Plant response rating, Itchgrass",[15]; Rate 32 g/ha,35
same,"Plant response rating, Itchgrass",[15]; Rate 64 g/ha,65
same,"Plant response rating, Itchgrass",[15]; Rate 125 g/ha,80
same,"Plant response rating, Itchgrass",[15]; Rate 250 g/ha,70
same,"Plant response rating, Sandbur",[16]; Rate 64 g/ha,40
same,"Plant response rating, Sandbur",[16]; Rate 125 g/ha,70
same,"Plant response rating, Sandbur",[16]; Rate 250 g/ha,70
same,"Plant response rating, Alexandergrass",[17]; Rate 32 g/ha,20
same,"Plant response rating, Alexandergrass",[17]; Rate 64 g/ha,40
same,"Plant response rating, Alexandergrass",[17]; Rate 125 g/ha,90
same,"Plant response rating, Alexandergrass",[17]; Rate 250 g/ha,90
same,"Plant response rating, P. morninglory",[18]; Rate 64 g/ha,30
same,"Plant response rating, P. morninglory",[18]; Rate 125 g/ha,65
same,"Plant response rating, P. morninglory",[18]; Rate 250 g/ha,75
same,"Plant response rating, Large crabgrass",[19]; Rate 35 g/ha,80
same,"Plant response rating, Large crabgrass",[19]; Rate 70 g/ha,100
same,"Plant response rating, Large crabgrass",[19]; Rate 140 g/ha,100
same,"Plant response rating, E. blacknightsh",[20]; Rate 35 g/ha,90
same,"Plant response rating, E. blacknightsh",[20]; Rate 70 g/ha,95
same,"Plant response rating, E. blacknightsh",[20]; Rate 140 g/ha,95
same,"Plant response rating, Wild poinsettia",[21]; Rate 35 g/ha,25
same,"Plant response rating, Wild poinsettia",[21]; Rate 70 g/ha,30
same,"Plant response rating, Wild poinsettia",[21]; Rate 140 g/ha,85
